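How tested: cells in 96-well plates exposed to compound for 48 hours at five concentrations. TGI: total growth inhibition.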
Experiments:
Assay in all cases: DTP human tumour cell line panel, 48 h
CAKI-1 renal = tested on: CAKI-1 renal
DU-145 prostate = tested on: DU-145 prostate
A498 renal = tested on: A498 renal
OVCAR-8 ovarian = tested on: OVCAR-8 ovarian
ACHN renal = tested on: ACHN renal
UO-31 renal = tested on: UO-31 renal
T-47D breast = tested on: T-47D breast
PC-3 prostate = tested on: PC-3 prostate
HL-60(TB) leukemia = tested on: HL-60(TB) leukemia
MALME-3M melanoma = tested on: MALME-3M melanoma

Measured: TGI

CC1(C)OC2OC(C(=O)c3ccccc3)C3OC(C)(C)OC3C2O1 (stereo unspecified)
not listed: MALME-3M melanoma
> 100 µM: all other assays above

COc1cc(CC(=O)c2cc3c(cc2-c2ccccc2)OCO3)cc(OC)c1OC
> 100 µM: A498 renal | OVCAR-8 ovarian | ACHN renal | MALME-3M melanoma | UO-31 renal | HL-60(TB) leukemia

CCSc1[nH]c(NC(=NC(C)C)NC(=O)c2ccccc2)c(C(N)=O)c1C(N)=O
not listed: A498 renal | ACHN renal | UO-31 renal
> 10 µM: all other assays above

Nc1ccn(CCCC(c2ccccc2)P(=O)(O)O)c(=O)n1 (stereo unspecified)
not listed: DU-145 prostate | T-47D breast | PC-3 prostate
> 100 µM: all other assays above

COC(=O)C1CCCN1C(=O)OC(C)(C)C (stereo unspecified)
> 100 µM: CAKI-1 renal | DU-145 prostate | ACHN renal | UO-31 renal | T-47D breast | PC-3 prostate

O=C1C(=Cc2ccc([N+](=O)[O-])o2)C(=O)N(CCc2ccccc2)S(=O)(=O)N1CCc1ccccc1
31.2 µM: ACHN renal
32 µM: MALME-3M melanoma
41.9 µM: HL-60(TB) leukemia
> 100 µM: UO-31 renal
79.2 µM: OVCAR-8 ovarian

CC(C)(/C=N/O)/[N+]([O-])=C/c1ccccc1
not listed: A498 renal | HL-60(TB) leukemia
> 100 µM: all other assays above

CN(C)C1(c2cc3ccccc3s2)CCCCC1
0.0658 µM: HL-60(TB) leukemia
not listed: T-47D breast | MALME-3M melanoma
> 100 µM: all other assays above

COc1ccc2nc3c([N+](=O)[O-])ccc(NCCCN(C)C)c3c(N)c2c1
5.86 µM: HL-60(TB) leukemia
3.05 µM: DU-145 prostate
3.98 µM: T-47D breast
2.73 µM: PC-3 prostate
2.59 µM: ACHN renal
4.69 µM: OVCAR-8 ovarian
3.1 µM: MALME-3M melanoma
3.71 µM: CAKI-1 renal | UO-31 renal

CCOC(=O)c1cc([N+](=O)[O-])cc([N+](=O)[O-])c1Sc1ncnc2nc[nH]c12
4.48 µM: OVCAR-8 ovarian
3.55 µM: UO-31 renal
6.59 µM: CAKI-1 renal
4.17 µM: ACHN renal
5.42 µM: DU-145 prostate
4.33 µM: HL-60(TB) leukemia
3.34 µM: T-47D breast
25.3 µM: A498 renal
9.57 µM: PC-3 prostate

O=C(CSc1nnc(-c2ccc(N=Cc3ccc(Cl)cc3)cc2)o1)Nc1cccc([N+](=O)[O-])c1
> 100 µM: OVCAR-8 ovarian | ACHN renal | MALME-3M melanoma | UO-31 renal | HL-60(TB) leukemia

Cn1c(=O)oc2cc(C(=S)N3CCCCC3)ccc21
not listed: UO-31 renal | T-47D breast
> 100 µM: all other assays above

COc1ccc(N2C(=O)C3C=CC(n4[nH]c(=O)n(Cc5ccccc5)c4=O)CC3C2=O)cc1 (stereo unspecified)
not listed: DU-145 prostate | T-47D breast | PC-3 prostate
> 100 µM: all other assays above

O=c1cc(NNc2cccc(F)c2)[nH]c(=S)[nH]1
not listed: CAKI-1 renal | T-47D breast
> 100 µM: all other assays above

O=C1C(Cl)C(c2ccc([N+](=O)[O-])cc2)N1n1cnc2ccccc2c1=O (stereo unspecified)
> 100 µM: CAKI-1 renal | OVCAR-8 ovarian | ACHN renal | MALME-3M melanoma | UO-31 renal

COc1ccc(C2NC3=C(CCCC3)N2)cc1
66 µM: HL-60(TB) leukemia
> 100 µM: A498 renal | OVCAR-8 ovarian | ACHN renal | MALME-3M melanoma | UO-31 renal

CC1(C)OC2[C@@H](CO[C@@]3([C@H]4OC(C)(C)O[C@@H]4CO)OC(C)(C)O[C@@H]23)O1 (stereo partly specified)
not listed: CAKI-1 renal | A498 renal
> 100 µM: all other assays above

NNC(=S)NN/C=C(\C=Nc1ccccc1)[N+](=O)[O-]
> 100 µM: CAKI-1 renal | OVCAR-8 ovarian | ACHN renal | MALME-3M melanoma | HL-60(TB) leukemia

Cc1csc2c(=O)n(COCc3ccccc3)c(=O)[nH]c12
not listed: T-47D breast
> 100 µM: all other assays above

Cc1cc(=O)[nH]c(NNC(C#N)c2ccc(N(C)C)cc2)n1 (stereo unspecified)
> 100 µM: CAKI-1 renal | OVCAR-8 ovarian | ACHN renal | MALME-3M melanoma | UO-31 renal | HL-60(TB) leukemia

COc1cc(CC2C(=O)OCC2[C@@H](OC(C)=O)c2ccc3c(c2)OCO3)c(Br)c(OC)c1OC (stereo partly specified)
> 100 µM: CAKI-1 renal | OVCAR-8 ovarian | ACHN renal | MALME-3M melanoma | UO-31 renal | HL-60(TB) leukemia

CCC1OC2C(CC=C(C)C)=C3OC(C)(O)C(C)(CC)C(=O)C3=C3OC(=O)C=C1C32 (stereo unspecified)
> 100 µM: CAKI-1 renal | DU-145 prostate | A498 renal | T-47D breast | PC-3 prostate
94.6 µM: ACHN renal
69.6 µM: UO-31 renal

O=C1NC2OC(CO)C(O)C(O)C2O1 (stereo unspecified)
not listed: DU-145 prostate | T-47D breast | PC-3 prostate
> 100 µM: all other assays above

O=C1[C@H](O)[C@@H]2CCC[C@@]23CCCN13
not listed: PC-3 prostate | MALME-3M melanoma
> 100 µM: all other assays above

O=C(CBr)NCCc1c[nH]c2ccccc12
4.19 µM: DU-145 prostate
41.2 µM: A498 renal
3.69 µM: HL-60(TB) leukemia
3.2 µM: ACHN renal | UO-31 renal
1.91 µM: CAKI-1 renal
> 48.3 µM: OVCAR-8 ovarian
9.41 µM: MALME-3M melanoma
4.03 µM: PC-3 prostate

C=C(C)[C@@H]1CCC2=C(CC[C@]3(C)[C@@H]([C@@H](CCC=C(C)C)C(=O)O)[C@H](O)C[C@@]23C)[C@@]1(C)CCC(=O)O
not listed: HL-60(TB) leukemia
> 100 µM: all other assays above

CC(C)(CO)NC(=O)c1cccs1
not listed: A498 renal
> 100 µM: all other assays above
